Measurements from ChEMBL document CHEMBL3044584, “4-Sulfenyl-2-carbamoyl-4-isoxazolin-3-ones: biological isostere to 4-chloro-2-carbamoyl-4-isoxazolin-3-ones” (Chem Pharm Bull (Tokyo), 2000).

Columns and labels:
[1] = tested on: Schoenoplectiella juncoides; experiment: Pre-emergent herbicidal activity against Schoenoplectiella juncoides assessed as growth inhibition at 25 g/a after 3 weeks in greenhouse conditions; type: functional; settings: pre-emergence, 504 h, read-out: GI
Eleocharis acicularis [2] = experiment: Pre-emergent herbicidal activity against Eleocharis acicularis assessed as growth inhibition at 10 g/a after 3 weeks in greenhouse conditions; type: functional; settings: pre-emergence, 504 h, read-out: GI
Lindernia procumbens [3] = experiment: Pre-emergent herbicidal activity against Lindernia procumbens assessed as growth inhibition at 25 g/a after 3 weeks in greenhouse conditions; type: functional; settings: pre-emergence, 504 h, read-out: GI
Lindernia procumbens [4] = experiment: Pre-emergent herbicidal activity against Lindernia procumbens assessed as growth inhibition at 10 g/a after 3 weeks in greenhouse conditions; type: functional; settings: pre-emergence, 504 h, read-out: GI
Echinochloa oryzicola [5] = experiment: Pre-emergent herbicidal activity against Echinochloa oryzicola assessed as growth inhibition at 10 g/a after 3 weeks in greenhouse conditions; type: functional; settings: pre-emergence, 504 h, read-out: GI
Cyperus serotinus [6] = experiment: Pre-emergent herbicidal activity against Cyperus serotinus assessed as growth inhibition at 25 g/a after 3 weeks in greenhouse conditions; type: functional; settings: pre-emergence, 504 h, read-out: GI
Eleocharis kuroguwai [7] = experiment: Pre-emergent herbicidal activity against Eleocharis kuroguwai assessed as growth inhibition at 10 g/a after 3 weeks in greenhouse conditions; type: functional; settings: pre-emergence, 504 h, read-out: GI
Eleocharis acicularis [8] = experiment: Pre-emergent herbicidal activity against Eleocharis acicularis assessed as growth inhibition at 25 g/a after 3 weeks in greenhouse conditions; type: functional; settings: pre-emergence, 504 h, read-out: GI
[9] = Phytotoxicity against Oryza sativa (rice) assessed as growth inhibition at 10 g/a after 3 weeks in greenhouse conditions; type: organism-based; settings: in vivo, read-out: GI
Echinochloa oryzicola [10] = experiment: Pre-emergent herbicidal activity against Echinochloa oryzicola assessed as growth inhibition at 25 g/a after 3 weeks in greenhouse conditions; type: functional; settings: pre-emergence, 504 h, read-out: GI
[11] = Phytotoxicity against Oryza sativa (rice) assessed as growth inhibition at 25 g/a after 3 weeks in greenhouse conditions; type: organism-based; settings: in vivo, read-out: GI
Eleocharis kuroguwai [12] = experiment: Pre-emergent herbicidal activity against Eleocharis kuroguwai assessed as growth inhibition at 25 g/a after 3 weeks in greenhouse conditions; type: functional; settings: pre-emergence, 504 h, read-out: GI
Cyperus serotinus [13] = experiment: Pre-emergent herbicidal activity against Cyperus serotinus assessed as growth inhibition at 10 g/a after 3 weeks in greenhouse conditions; type: functional; settings: pre-emergence, 504 h, read-out: GI
[14] = tested on: Schoenoplectiella juncoides; experiment: Pre-emergent herbicidal activity against Schoenoplectiella juncoides assessed as growth inhibition at 10 g/a after 3 weeks in greenhouse conditions; type: functional; settings: pre-emergence, 504 h, read-out: GI

## CCSc1c(C)on(C(=O)N(c2ccc(Cl)cc2)C(C)C)c1=O
[1]
  inhibition of growth at 2500 g/ha: > 91%
Eleocharis acicularis [2]
  inhibition of growth at 1000 g/ha: > 91%
Lindernia procumbens [3]
  inhibition of growth at 2500 g/ha: > 91%
Lindernia procumbens [4]
  inhibition of growth at 1000 g/ha: > 91%
Echinochloa oryzicola [5]
  inhibition of growth at 1000 g/ha: > 91%
Cyperus serotinus [6]
  inhibition of growth at 2500 g/ha: > 91%
Eleocharis kuroguwai [7]
  inhibition of growth at 1000 g/ha: > 91%
Eleocharis acicularis [8]
  inhibition of growth at 2500 g/ha: > 91%
[9]
  inhibition at 504 h: < 10%
Echinochloa oryzicola [10]
  inhibition of growth at 2500 g/ha: > 91%
[11]
  inhibition at 504 h: 11%
Eleocharis kuroguwai [12]
  inhibition of growth at 2500 g/ha: > 91%
Cyperus serotinus [13]
  inhibition of growth at 1000 g/ha: > 91%
[14]
  inhibition of growth at 1000 g/ha: > 91%

## CCSc1c(C)on(C(=O)N(c2ccc(F)cc2)C(C)C)c1=O
[1]
  inhibition of growth at 2500 g/ha: > 91%
Lindernia procumbens [3]
  inhibition of growth at 2500 g/ha: > 91%
Cyperus serotinus [6]
  inhibition of growth at 2500 g/ha: > 91%
Eleocharis acicularis [8]
  inhibition of growth at 2500 g/ha: > 91%
Echinochloa oryzicola [10]
  inhibition of growth at 2500 g/ha: > 91%
[11]
  inhibition at 504 h: 51%
Eleocharis kuroguwai [12]
  inhibition of growth at 2500 g/ha: > 91%

## CCSc1c(C)on(C(=O)N(c2ccc(C)cc2)C(C)C)c1=O
Eleocharis acicularis [2]
  inhibition of growth at 1000 g/ha: 71%
Lindernia procumbens [4]
  inhibition of growth at 1000 g/ha: 31%
Echinochloa oryzicola [5]
  inhibition of growth at 1000 g/ha: > 91%
Eleocharis kuroguwai [7]
  inhibition of growth at 1000 g/ha: > 91%
[9]
  inhibition at 504 h: < 10%
Cyperus serotinus [13]
  inhibition of growth at 1000 g/ha: > 91%
[14]
  inhibition of growth at 1000 g/ha: > 91%

## CCSc1c(C)on(C(=O)N(c2ccc(Cl)cc2Cl)C(C)C)c1=O
Eleocharis acicularis [2]
  inhibition of growth at 1000 g/ha: 71%
Lindernia procumbens [4]
  inhibition of growth at 1000 g/ha: 71%
Echinochloa oryzicola [5]
  inhibition of growth at 1000 g/ha: > 91%
Eleocharis kuroguwai [7]
  inhibition of growth at 1000 g/ha: > 91%
[9]
  inhibition at 504 h: < 10%
Cyperus serotinus [13]
  inhibition of growth at 1000 g/ha: > 91%
[14]
  inhibition of growth at 1000 g/ha: > 91%

## CCSc1c(C)on(C(=O)N(c2ccc(C#N)cc2)C(C)C)c1=O
Eleocharis acicularis [2]
  inhibition of growth at 1000 g/ha: 71%
Lindernia procumbens [4]
  inhibition of growth at 1000 g/ha: 71%
Echinochloa oryzicola [5]
  inhibition of growth at 1000 g/ha: > 91%
Eleocharis kuroguwai [7]
  inhibition of growth at 1000 g/ha: > 91%
[9]
  inhibition at 504 h: 51%
Cyperus serotinus [13]
  inhibition of growth at 1000 g/ha: > 91%
[14]
  inhibition of growth at 1000 g/ha: > 91%

## CCSc1c(C)on(C(=O)N(c2cccc([N+](=O)[O-])c2)C(C)C)c1=O
Eleocharis acicularis [2]
  inhibition of growth at 1000 g/ha: 71%
Lindernia procumbens [4]
  inhibition of growth at 1000 g/ha: 71%
Echinochloa oryzicola [5]
  inhibition of growth at 1000 g/ha: > 91%
Eleocharis kuroguwai [7]
  inhibition of growth at 1000 g/ha: > 91%
[9]
  inhibition at 504 h: 11%
Cyperus serotinus [13]
  inhibition of growth at 1000 g/ha: > 91%
[14]
  inhibition of growth at 1000 g/ha: > 91%

## CCSc1c(C)on(C(=O)N(c2cccc(C(F)(F)F)c2)C(C)C)c1=O
Eleocharis acicularis [2]
  inhibition of growth at 1000 g/ha: 31%
Lindernia procumbens [4]
  inhibition of growth at 1000 g/ha: 51%
Echinochloa oryzicola [5]
  inhibition of growth at 1000 g/ha: > 91%
Eleocharis kuroguwai [7]
  inhibition of growth at 1000 g/ha: > 91%
[9]
  inhibition at 504 h: < 10%
Cyperus serotinus [13]
  inhibition of growth at 1000 g/ha: > 91%
[14]
  inhibition of growth at 1000 g/ha: 71%

## CCSc1c(CC)on(C(=O)N(c2ccc(Cl)cc2)C(C)C)c1=O
[1]
  inhibition of growth at 2500 g/ha: 71%
Eleocharis acicularis [2]
  inhibition of growth at 1000 g/ha: 51%
Lindernia procumbens [3]
  inhibition of growth at 2500 g/ha: 71%
Lindernia procumbens [4]
  inhibition of growth at 1000 g/ha: 51%
Echinochloa oryzicola [5]
  inhibition of growth at 1000 g/ha: > 91%
Cyperus serotinus [6]
  inhibition of growth at 2500 g/ha: > 91%
Eleocharis kuroguwai [7]
  inhibition of growth at 1000 g/ha: > 91%
Eleocharis acicularis [8]
  inhibition of growth at 2500 g/ha: 71%
[9]
  inhibition at 504 h: < 10%
Echinochloa oryzicola [10]
  inhibition of growth at 2500 g/ha: > 91%
[11]
  inhibition at 504 h: 31%
Eleocharis kuroguwai [12]
  inhibition of growth at 2500 g/ha: > 91%
Cyperus serotinus [13]
  inhibition of growth at 1000 g/ha: 71%
[14]
  inhibition of growth at 1000 g/ha: 51%

## CCCSc1c(C)on(C(=O)N(c2ccc(Cl)cc2)C(C)C)c1=O
[1]
  inhibition of growth at 2500 g/ha: > 91%
Eleocharis acicularis [2]
  inhibition of growth at 1000 g/ha: > 91%
Lindernia procumbens [3]
  inhibition of growth at 2500 g/ha: > 91%
Lindernia procumbens [4]
  inhibition of growth at 1000 g/ha: 51%
Echinochloa oryzicola [5]
  inhibition of growth at 1000 g/ha: > 91%
Cyperus serotinus [6]
  inhibition of growth at 2500 g/ha: > 91%
Eleocharis kuroguwai [7]
  inhibition of growth at 1000 g/ha: > 91%
Eleocharis acicularis [8]
  inhibition of growth at 2500 g/ha: > 91%
[9]
  inhibition at 504 h: < 10%
Echinochloa oryzicola [10]
  inhibition of growth at 2500 g/ha: > 91%
[11]
  inhibition at 504 h: 31%
Eleocharis kuroguwai [12]
  inhibition of growth at 2500 g/ha: > 91%
Cyperus serotinus [13]
  inhibition of growth at 1000 g/ha: > 91%
[14]
  inhibition of growth at 1000 g/ha: > 91%
